Experimental data as given in US8710045B2, “Agents for preventing and treating disorders involving modulation of the ryanodine receptors” (The Trustees of Columbia University in the City of New York, priority 2004, dated 2014).

What was measured:
L-type Ca2+ channels = target: T1, L-type Ca2+ channels (Mus musculus, UniProt Q01815); assay: L-type Ca2+ channel current, whole-cell patch clamp in isolated mouse cardiomyocytes; format: cell-based; conditions: Ba2+ as charge carrier
T1 construct: currents through L-type Ca^2+ channels in isolated mouse cardiomyocytes are recorded; endogenous in cells; host or cells: isolated mouse cardiomyocytes
Procedure: The final pellets are pooled and resuspended in imidazole buffer (final concentration≈10 μg/μl). […] Immunoblots are developed using an anti-FKBP antibody (1:3,000 dilution). The amount of rebinding is quantified using densitometry of Western blots and is compared to the amount of FKBP associated with RyR in non-phosphorylated SR. […] K2ATP, 5; HEPES, 10; aspartic acid, 50; pH 7.4 (CsOH). […] Drugs are applied by a local solution changer and reach the cell membrane within 1 s.

RyR1 = target: T2, RyR1 (Mus musculus, UniProt E9PZQ0); assay: RyR1 immunoprecipitation from soleus muscle after 21 days of exercise, calstabin1 western blot; format: in vivo; conditions: subcutaneous mini-osmotic pump
T2 construct: RyR1 was immunoprecipitated from soleus muscle homogenates of mice following 21 days of exercise; from tissue; host or cells: mouse hind-limb skeletal muscle (soleus, EDL; SR microsomes for bilayer recording)
Procedure: RyR1 was immunoprecipitated from soleus muscle homogenates of mice following 21 days of exercise with or without simultaneous subcutaneous mini-osmotic pump treatment with S36 and then western blotted back for RyR1, phospho-epitope specific RyR1-pS2844, and calstabin1 bound to the RyR1 macromolecular complex.
The samples were incubated with protein A Sepharose beads (Amersham Pharmacia) at 4° C. for 1 h, after which the beads were washed three times with buffer. Proteins were separated on SDS PAGE gels (6% for RyR2 and 15% for calstabin2) and transferred onto nitrocellulose membranes overnight (SemiDry transfer blot, Bio-Rad). After incubation with 5% nonfat milk to prevent non-specific antibody binding and a wash in Tris-buffered saline with 0.1% Tween-20, membranes were incubated for 1-2 h at room temperature with primary antibodies anti-calstabin (1:1,000), anti-RyR (5029; 1:5,000), or anti-phospho-RyR2-pSer2809 (1:5,000), which detects PKA-phosphorylated mouse RyR1-pSer2844 and RyR2-pSer2808. After three washes, membranes were incubated with horseradish peroxidase-labeled anti-rabbit IgG (1:5,000, Transduction Laboratories, Lexington, Ky.), and developed with an enhanced chemiluminescent detection system (Amersham Pharmacia). Band densities were quantified by using QUANTITY ONE software (Bio-Rad).

hERG potassium current = hERG potassium current (Homo sapiens, UniProt Q12809); assay: S107 specificity: hERG potassium current; conditions: 500 nM
FDB muscle fibers = assay: Confocal calcium imaging of isolated FDB muscle fibers during fatigue protocol; format: in vivo, mouse; conditions: FDB fibers from treated, chronically exercised mice
Procedure: Confocal microscopy: Single flexor digitorum brevis (FDB) fibers were enzymatically dissociated by standard methods (Reiken, Lacampagne et al. 2003). Briefly, the muscle was dissected from the paw, placed in a modified Ringer's solution, and stripped of all fascia. Type 1 collagenase-(2 mg/ml, Sigma) in Ringer's solution was prepared fresh, and the muscle was digested for 2 hours at 37° C. in a incubator shaking at 125 rpm. The muscle was placed in fresh Ringer's and gently triturated. Single fibers were collected and allowed to attach to glass coverslips coated in laminin (Sigma L-2020). The cells were loaded with 2 μM fluo-4-AM ester (Invitrogen) for 20 minutes, placed on the Zeiss Live 5 microscope stage and superfused for 15 minutes with Ringer's. The fibers were paced at 1 Hz for 10 minutes prior to imaging baseline fiber properties. Linescan images were continuously acquired at 1 ms scan rate during a tetanic sequence consisting of 300 ms stimulation at 100 Hz with a 2 Hz train rate. Images were analyzed in ImageJ, and an F/F0 ratio was calculated for each fiber.
Reduced fatiguability in calstabin1 rebound FDB muscle fibers: Flexor digitorum brevis (FDB) muscle fibers were enzymatically dissociated from mice following the chronic exercise protocol and loaded with the calcium indicator fluo-4. […] The kinetics of Ca^2+ release and reuptake during single twitches at 1 Hz were assessed.

C57BL/6J mice = assay: S107 chronic exercise model: treadmill run to exhaustion; format: in vivo, mouse
Procedure: Mice were allowed to recover for three days prior to the initiation of exercise. Standard food and water were provided ad libitum through the experiment.
Chronic Exercise Model: The daily swimming protocol consisted of twice-daily swimming sessions separated by a one-hour rest period. After an initial conditioning regimen lasting 5 days during which the swimming sessions were increased in 10 minute increments from 40 minutes each to 80 minutes each, the swimming sessions thereafter lasted 90 minutes each. A 30 cm wide by 30 cm long opaque acrylic tank was filled with tap water to a depth of at least 20 cm. Water was circulated and warmed to 32-34° C. using a separate reservoir with heating element, thermostat, and pump. 8 mice, balanced pair-wise with respect to genotype and/or treatment group, swam at any one time in the tank.
Treadmill performance: A Columbus Instruments (Columbus, Ohio) treadmill (Model: Exer-6M Treadmill with Treadmill Shock Detection Unit) with 6 lanes was used to run the mice. Mice were placed in their respective lanes with the shocking apparatus turned off and allowed to adjust to the surroundings for 10 minutes. The forward half of the treadmill was covered with aluminum foil to block out light and a desk lamp illuminated the shocking area at the rear of the treadmill. After the adjustment period, the treadmill was set to 10 meters/min, and the mice were trained to run with gentle prodding for 6 minutes. The electric current was then turned on, and the number of shocks delivered during the next two three minute intervals (training period) were recorded. The shock counter was then reset and visits to the shocking area and shocks delivered to each mouse were recorded at three-minute intervals until the end of the experiment. At regular intervals, the speed of the treadmill was ramped up from the initial 10 m/min to 24 m/min. The speed was increased no more than 2 m/min every 6 minutes. Task failure was defined when a mouse could not continue running despite gentle prodding.
Age and sex-matched WT mice were randomized to receive osmotic pumps containing either S107 or vehicle. […] Exercise capacity was assessed once a week by a level treadmill run to exhaustion during the nocturnal cycle of the mouse. The mice were not exercised on the same day as treadmill assessments. […] These studies are complicated by the training effect of repeated exercise which leads to improved performance due to enhanced musculature. Isometric force production was measured in EDL muscles in a tissue bath during field stimulation.

Sequence of hERG potassium current (Q12809 whole entry): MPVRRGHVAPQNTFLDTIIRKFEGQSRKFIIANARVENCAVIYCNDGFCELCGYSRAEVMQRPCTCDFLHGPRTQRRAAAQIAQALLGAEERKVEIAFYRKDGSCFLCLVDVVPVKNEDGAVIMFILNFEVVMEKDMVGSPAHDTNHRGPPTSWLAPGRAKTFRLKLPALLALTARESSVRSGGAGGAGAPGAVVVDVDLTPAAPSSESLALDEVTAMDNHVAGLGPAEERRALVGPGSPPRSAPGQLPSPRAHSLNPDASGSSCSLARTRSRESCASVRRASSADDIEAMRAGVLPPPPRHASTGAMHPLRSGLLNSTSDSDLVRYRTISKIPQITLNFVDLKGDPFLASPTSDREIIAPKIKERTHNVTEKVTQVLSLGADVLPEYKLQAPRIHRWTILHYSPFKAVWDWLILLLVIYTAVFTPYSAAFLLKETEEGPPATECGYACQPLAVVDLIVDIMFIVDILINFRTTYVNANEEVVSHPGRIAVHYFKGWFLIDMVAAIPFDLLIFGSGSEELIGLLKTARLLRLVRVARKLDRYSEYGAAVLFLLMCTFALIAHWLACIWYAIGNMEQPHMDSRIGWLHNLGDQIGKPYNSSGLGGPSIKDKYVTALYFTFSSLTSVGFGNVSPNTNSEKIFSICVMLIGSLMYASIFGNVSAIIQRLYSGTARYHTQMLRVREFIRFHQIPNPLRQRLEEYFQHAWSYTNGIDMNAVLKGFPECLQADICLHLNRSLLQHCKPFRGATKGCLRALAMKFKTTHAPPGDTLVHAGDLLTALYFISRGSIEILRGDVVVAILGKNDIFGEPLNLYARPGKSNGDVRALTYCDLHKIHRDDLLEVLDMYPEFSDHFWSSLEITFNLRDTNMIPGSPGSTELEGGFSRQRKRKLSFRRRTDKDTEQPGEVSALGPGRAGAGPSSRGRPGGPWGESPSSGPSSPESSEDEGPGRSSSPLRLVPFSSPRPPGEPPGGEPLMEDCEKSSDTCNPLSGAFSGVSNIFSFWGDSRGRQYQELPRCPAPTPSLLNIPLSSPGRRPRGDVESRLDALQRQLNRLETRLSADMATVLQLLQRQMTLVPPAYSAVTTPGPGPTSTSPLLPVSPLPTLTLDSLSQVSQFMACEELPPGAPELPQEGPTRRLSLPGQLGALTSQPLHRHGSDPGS
T1 sequence (Q01815 whole entry): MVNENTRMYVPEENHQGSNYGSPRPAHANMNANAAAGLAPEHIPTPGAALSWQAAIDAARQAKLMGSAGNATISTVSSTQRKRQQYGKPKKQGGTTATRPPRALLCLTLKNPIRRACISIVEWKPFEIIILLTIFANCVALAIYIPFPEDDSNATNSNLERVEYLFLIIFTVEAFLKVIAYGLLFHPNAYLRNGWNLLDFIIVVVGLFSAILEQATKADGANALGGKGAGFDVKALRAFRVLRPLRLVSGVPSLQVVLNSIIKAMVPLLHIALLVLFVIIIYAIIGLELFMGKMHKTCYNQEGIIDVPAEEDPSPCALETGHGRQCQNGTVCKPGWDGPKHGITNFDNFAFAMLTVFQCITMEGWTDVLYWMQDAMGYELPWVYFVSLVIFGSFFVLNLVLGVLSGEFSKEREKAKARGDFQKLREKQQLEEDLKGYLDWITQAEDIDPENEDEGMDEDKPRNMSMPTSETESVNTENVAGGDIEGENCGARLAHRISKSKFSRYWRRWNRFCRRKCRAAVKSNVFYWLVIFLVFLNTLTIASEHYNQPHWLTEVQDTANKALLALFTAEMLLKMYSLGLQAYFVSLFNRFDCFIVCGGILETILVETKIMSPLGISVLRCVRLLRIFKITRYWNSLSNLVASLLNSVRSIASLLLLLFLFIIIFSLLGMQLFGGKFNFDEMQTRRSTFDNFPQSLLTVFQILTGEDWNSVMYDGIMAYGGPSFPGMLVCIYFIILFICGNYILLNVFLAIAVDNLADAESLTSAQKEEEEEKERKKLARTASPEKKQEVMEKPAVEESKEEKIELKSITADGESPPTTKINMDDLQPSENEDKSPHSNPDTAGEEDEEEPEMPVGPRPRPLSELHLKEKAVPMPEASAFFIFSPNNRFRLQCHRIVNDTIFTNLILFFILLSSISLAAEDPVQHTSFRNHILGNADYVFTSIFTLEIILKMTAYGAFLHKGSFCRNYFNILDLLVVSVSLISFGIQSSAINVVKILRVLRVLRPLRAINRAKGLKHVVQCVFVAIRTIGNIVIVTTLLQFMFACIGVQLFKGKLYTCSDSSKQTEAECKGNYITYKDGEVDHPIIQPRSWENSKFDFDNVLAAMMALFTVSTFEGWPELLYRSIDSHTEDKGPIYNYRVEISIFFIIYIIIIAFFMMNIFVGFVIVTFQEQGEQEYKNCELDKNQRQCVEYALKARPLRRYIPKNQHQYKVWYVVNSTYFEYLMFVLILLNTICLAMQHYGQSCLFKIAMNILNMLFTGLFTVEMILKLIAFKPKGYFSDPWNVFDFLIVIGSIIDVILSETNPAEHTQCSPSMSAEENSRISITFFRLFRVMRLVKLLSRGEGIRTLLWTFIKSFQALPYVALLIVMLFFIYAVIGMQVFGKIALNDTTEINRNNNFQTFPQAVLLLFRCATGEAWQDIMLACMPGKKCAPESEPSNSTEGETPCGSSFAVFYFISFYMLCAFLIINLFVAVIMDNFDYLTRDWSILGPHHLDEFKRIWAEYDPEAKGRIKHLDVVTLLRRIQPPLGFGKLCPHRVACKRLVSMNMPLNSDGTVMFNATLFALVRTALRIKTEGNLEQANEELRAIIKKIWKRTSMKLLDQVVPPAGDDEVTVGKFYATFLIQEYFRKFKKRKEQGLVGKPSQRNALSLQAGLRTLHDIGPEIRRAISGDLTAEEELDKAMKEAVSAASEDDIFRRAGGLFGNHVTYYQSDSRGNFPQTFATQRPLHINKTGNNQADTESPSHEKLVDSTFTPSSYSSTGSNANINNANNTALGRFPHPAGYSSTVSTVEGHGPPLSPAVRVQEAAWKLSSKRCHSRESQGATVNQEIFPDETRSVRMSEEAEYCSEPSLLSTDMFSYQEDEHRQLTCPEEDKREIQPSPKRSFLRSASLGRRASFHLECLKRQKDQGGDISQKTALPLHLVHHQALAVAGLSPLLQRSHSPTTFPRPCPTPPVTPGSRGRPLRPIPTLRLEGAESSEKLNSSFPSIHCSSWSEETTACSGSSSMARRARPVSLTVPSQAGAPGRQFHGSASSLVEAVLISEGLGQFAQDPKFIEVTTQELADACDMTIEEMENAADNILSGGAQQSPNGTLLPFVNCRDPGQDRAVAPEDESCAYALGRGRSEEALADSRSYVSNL
T1 sequence (Q8CC27 whole entry partner): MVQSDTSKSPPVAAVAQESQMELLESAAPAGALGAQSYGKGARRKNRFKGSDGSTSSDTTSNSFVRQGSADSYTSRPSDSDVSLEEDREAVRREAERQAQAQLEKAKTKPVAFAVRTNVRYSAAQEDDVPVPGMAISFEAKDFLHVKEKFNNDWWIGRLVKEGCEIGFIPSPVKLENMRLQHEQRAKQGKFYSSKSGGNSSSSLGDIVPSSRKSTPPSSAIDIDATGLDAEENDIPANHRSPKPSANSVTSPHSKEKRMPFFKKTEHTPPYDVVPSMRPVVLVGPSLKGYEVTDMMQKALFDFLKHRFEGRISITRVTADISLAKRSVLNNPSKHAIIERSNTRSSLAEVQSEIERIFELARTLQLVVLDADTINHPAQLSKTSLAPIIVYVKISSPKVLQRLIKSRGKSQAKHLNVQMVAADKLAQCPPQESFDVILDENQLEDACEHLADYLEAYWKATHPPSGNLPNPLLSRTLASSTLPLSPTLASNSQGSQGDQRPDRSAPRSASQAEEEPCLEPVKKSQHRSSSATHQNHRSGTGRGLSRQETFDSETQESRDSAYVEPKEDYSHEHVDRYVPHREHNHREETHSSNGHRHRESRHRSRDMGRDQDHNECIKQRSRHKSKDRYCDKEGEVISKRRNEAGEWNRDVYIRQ
T1 sequence (O08532 25-956 partner limits assumed): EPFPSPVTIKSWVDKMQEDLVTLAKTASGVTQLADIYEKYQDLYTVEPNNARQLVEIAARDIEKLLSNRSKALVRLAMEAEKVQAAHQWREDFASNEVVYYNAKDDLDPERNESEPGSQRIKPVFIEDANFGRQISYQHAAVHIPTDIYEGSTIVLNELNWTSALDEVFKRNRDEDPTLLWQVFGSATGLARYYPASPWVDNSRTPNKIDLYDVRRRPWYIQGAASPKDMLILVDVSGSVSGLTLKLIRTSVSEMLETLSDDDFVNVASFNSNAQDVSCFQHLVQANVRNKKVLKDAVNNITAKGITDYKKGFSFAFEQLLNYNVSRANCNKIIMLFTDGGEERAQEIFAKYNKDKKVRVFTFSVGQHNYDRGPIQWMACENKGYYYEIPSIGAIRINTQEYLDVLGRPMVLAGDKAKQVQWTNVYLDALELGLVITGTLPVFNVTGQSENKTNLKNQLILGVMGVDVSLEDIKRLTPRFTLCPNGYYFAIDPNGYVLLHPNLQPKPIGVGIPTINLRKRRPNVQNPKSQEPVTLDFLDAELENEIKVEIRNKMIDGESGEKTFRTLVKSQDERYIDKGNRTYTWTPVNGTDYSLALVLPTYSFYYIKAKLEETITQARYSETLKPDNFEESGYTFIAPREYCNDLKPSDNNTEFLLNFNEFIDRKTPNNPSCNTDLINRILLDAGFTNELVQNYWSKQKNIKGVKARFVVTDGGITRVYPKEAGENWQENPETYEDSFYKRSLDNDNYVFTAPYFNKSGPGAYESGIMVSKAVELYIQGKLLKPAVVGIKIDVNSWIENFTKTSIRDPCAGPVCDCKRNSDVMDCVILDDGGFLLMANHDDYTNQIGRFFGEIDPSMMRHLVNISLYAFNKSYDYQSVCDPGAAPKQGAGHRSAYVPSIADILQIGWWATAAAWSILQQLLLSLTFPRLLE
T1 sequence (O08532 957-1103 partner limits assumed): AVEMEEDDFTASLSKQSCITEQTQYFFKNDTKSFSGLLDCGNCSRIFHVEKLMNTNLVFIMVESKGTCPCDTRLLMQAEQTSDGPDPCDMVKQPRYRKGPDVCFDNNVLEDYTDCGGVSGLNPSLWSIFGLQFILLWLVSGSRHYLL

| Structure (SMILES) | block of L-type Ca2+ channel current (ICa,L) (L-type Ca2+ channels) | calstabin1 bound to RyR1 (RyR1) | effect on hERG potassium current (hERG potassium current) | peak tetanic calcium transients during fatigue protocol (FDB muscle fibers) | acute effect on WT treadmill exercise performance (C57BL/6J mice; 2.5 ug/hr osmotic pump, WT mice) | treadmill exercise capacity (time to failure) vs vehicle (C57BL/6J mice; Day 21, WT mice, p<0.05) | treadmill performance (C57BL/6J mice; mice deficient in calstabin1) | body weight (C57BL/6J mice; throughout trial) |
| --- | --- | --- | --- | --- | --- | --- | --- | --- |
| COc1ccc2c(c1)CN(C(=O)C(=O)O)CCS2 [S36] | does not block | allows RyR1 to rebind calstabin1 |  |  |  |  |  |  |
| COc1ccc2c(c1)CN(C)CCS2 [S107] |  |  | not to affect | delayed decline in peak tetanic calcium transients | no acute effect | relatively protected against a decline in treadmill exercise capacity | failed to improve treadmill performance | did not result in a change |
